Laboratory results reported in ChEMBL document CHEMBL3991601, “The target landscape of clinical kinase drugs” (Science, 2017).
Counter-ions that a name gives are not always drawn. Calls of active or inactive are those of the source.

How the values were obtained:
[1] = molecular target: cAMP-dependent protein kinase type II-alpha regulatory subunit (Homo sapiens, UniProt P13861)
[2] = molecular target: T1, Serine/threonine-protein kinase D2 (Homo sapiens, UniProt Q9BZL6)
T1 sequence (Q9BZL6 whole entry): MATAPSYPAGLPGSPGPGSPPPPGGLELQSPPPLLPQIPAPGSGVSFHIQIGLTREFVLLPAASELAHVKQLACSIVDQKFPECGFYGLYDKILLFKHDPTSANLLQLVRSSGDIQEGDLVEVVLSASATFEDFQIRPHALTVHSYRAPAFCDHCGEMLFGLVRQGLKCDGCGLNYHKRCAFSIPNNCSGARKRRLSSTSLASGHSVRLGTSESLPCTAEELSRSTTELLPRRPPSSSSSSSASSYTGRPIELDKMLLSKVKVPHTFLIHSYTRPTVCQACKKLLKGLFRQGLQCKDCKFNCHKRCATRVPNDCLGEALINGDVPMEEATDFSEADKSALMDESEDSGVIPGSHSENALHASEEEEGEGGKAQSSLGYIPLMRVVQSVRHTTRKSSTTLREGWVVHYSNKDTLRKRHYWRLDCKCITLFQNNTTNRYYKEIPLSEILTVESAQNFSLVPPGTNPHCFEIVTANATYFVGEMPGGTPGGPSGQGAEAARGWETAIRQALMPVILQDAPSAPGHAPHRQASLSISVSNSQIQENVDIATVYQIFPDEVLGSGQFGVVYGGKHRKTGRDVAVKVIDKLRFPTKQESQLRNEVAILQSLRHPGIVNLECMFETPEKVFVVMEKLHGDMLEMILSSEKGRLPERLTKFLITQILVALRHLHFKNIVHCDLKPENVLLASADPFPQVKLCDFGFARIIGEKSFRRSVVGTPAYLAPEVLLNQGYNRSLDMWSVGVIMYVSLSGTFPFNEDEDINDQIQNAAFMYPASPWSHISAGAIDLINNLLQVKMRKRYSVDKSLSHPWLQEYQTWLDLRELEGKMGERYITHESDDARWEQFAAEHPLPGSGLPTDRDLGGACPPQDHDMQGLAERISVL

[3] = molecular target: T2, Structural maintenance of chromosomes protein 1A (Homo sapiens, UniProt Q14683)
T2 sequence (Q14683 whole entry): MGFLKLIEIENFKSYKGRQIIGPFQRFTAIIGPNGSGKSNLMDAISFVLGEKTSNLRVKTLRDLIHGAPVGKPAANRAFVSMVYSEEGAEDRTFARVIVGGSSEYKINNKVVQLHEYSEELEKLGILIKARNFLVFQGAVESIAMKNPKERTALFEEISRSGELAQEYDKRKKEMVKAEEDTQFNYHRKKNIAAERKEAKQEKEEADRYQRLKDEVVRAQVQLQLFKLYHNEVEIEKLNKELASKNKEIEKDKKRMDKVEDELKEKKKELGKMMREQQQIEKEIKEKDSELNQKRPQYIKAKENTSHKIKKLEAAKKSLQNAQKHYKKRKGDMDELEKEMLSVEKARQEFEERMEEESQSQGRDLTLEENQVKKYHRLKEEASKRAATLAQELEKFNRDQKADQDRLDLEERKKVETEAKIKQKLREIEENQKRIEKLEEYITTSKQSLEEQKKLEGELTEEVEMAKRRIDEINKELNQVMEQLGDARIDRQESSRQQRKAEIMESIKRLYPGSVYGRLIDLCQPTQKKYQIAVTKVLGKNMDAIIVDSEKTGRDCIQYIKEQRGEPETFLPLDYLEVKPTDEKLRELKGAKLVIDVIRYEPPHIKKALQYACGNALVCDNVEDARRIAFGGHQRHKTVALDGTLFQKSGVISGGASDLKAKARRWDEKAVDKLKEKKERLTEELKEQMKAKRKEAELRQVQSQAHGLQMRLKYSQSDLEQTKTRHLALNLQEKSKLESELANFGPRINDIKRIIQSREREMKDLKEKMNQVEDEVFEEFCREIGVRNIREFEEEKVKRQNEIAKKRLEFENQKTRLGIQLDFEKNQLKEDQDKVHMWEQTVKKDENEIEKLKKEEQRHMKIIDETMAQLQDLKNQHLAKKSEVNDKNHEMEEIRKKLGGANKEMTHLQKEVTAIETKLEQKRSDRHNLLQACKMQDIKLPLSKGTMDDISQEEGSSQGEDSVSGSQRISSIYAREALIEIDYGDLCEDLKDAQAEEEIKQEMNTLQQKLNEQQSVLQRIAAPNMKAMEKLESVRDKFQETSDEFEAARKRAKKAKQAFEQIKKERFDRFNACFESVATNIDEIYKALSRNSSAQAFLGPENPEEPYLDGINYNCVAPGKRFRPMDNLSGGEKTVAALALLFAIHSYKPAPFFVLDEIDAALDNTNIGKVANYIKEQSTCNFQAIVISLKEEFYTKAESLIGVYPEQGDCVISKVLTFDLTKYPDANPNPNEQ

Activin receptor type-1 = molecular target: T3, Activin receptor type-1 (Homo sapiens, UniProt Q04771)
T3 sequence (Q04771 whole entry): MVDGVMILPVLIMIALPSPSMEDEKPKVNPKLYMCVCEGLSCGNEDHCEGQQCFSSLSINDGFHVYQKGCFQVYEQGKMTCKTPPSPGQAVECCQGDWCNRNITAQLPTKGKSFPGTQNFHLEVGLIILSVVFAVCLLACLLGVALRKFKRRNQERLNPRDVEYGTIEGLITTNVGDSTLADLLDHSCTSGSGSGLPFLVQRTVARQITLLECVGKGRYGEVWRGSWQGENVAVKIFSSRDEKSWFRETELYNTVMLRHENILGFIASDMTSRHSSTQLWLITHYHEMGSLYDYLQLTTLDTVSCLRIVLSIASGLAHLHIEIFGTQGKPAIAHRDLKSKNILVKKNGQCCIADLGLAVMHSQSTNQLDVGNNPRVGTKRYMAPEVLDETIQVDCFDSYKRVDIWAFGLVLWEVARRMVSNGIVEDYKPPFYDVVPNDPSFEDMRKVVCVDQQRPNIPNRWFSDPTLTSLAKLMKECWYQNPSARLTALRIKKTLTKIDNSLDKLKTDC

[4] = molecular target: Macrophage-stimulating protein receptor (Homo sapiens, UniProt Q04912)
[5] = molecular target: Guanine nucleotide-binding protein G(i) subunit alpha-2 (Homo sapiens, UniProt P04899)
Further: in the data inactive means no Kd found up to 30 µM.

Chain of Macrophage-stimulating protein receptor (Q04912 25-304 limits assumed): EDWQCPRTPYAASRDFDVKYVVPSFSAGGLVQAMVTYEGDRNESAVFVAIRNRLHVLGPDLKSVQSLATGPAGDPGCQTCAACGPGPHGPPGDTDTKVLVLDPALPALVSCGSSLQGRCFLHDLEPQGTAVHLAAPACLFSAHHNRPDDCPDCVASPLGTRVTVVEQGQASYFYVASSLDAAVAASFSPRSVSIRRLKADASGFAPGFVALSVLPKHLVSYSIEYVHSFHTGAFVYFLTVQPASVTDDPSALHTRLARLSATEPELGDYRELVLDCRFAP
Chain of Macrophage-stimulating protein receptor (Q04912 310-1400 limits assumed): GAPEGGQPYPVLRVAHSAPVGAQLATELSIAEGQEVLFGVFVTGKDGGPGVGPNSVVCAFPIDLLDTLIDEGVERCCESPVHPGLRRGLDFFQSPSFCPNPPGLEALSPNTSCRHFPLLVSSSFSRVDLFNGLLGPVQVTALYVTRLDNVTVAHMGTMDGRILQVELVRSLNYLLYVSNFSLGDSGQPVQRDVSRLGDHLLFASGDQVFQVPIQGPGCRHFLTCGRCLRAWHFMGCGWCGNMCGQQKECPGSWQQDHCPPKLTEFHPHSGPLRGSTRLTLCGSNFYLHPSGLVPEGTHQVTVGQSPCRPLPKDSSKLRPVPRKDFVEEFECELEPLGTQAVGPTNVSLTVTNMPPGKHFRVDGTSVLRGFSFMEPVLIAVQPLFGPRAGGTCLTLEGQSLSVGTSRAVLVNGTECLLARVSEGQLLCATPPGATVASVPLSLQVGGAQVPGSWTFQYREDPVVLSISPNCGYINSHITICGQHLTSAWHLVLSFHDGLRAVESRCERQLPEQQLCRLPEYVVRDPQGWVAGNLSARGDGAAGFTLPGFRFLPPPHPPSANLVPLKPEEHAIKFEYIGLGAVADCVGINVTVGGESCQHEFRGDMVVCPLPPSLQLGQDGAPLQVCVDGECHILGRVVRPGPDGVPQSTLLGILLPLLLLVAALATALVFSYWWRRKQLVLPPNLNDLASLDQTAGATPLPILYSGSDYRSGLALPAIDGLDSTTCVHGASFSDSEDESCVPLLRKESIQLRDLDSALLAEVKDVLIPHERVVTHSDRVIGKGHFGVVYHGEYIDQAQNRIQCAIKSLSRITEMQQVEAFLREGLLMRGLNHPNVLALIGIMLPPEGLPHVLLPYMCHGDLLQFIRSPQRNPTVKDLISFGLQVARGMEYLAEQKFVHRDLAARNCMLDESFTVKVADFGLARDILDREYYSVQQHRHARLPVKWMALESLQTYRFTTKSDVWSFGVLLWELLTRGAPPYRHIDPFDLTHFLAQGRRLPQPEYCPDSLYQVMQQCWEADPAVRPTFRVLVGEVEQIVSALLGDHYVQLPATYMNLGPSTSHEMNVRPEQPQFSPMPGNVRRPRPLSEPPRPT
Chain of cAMP-dependent protein kinase type II-alpha regulatory subunit (P13861 whole entry): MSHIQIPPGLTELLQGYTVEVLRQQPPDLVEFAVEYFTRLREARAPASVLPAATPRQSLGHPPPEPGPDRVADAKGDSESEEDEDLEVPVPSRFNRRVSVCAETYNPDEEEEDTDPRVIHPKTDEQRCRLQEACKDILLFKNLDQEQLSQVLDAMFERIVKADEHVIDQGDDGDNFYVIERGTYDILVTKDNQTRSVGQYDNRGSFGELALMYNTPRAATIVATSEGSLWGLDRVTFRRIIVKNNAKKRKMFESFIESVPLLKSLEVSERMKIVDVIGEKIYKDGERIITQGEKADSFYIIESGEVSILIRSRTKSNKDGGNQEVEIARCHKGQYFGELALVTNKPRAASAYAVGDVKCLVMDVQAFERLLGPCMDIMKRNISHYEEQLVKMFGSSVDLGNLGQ
Chain of Guanine nucleotide-binding protein G(i) subunit alpha-2 (P04899 whole entry): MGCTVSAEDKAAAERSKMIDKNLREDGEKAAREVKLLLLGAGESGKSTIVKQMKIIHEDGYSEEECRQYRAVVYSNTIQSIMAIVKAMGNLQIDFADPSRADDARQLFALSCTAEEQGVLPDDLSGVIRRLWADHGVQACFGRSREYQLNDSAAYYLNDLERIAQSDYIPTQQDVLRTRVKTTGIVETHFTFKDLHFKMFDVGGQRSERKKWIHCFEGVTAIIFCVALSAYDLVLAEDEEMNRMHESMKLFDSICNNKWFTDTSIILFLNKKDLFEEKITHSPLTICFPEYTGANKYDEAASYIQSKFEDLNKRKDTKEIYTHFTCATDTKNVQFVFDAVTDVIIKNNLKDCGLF

Compound | Kd [1] | Kd [2] | Kd [3] | Kd (Activin receptor type-1) | Kd [4] | Kd [5]
CCNC(=O)C#Cc1ccc2c(c1)NC(=O)/C2=C(\Nc1ccc(CN(C)C)cc1)c1ccccc1 | > 30 µM (inactive) | > 30 µM (inactive) | > 30 µM (inactive) | > 30 µM (inactive) | > 30 µM (inactive) | > 30 µM (inactive)
CCS(=O)(=O)c1cccc(-c2cc(C(=O)NC3CCN(C)CC3)c(C)c3[nH]c4ncc(C)cc4c23)c1 [TAK-901] | > 30 µM (inactive) | > 30 µM (inactive) | > 30 µM (inactive) | 0.249 µM (active) | > 30 µM (inactive) | > 30 µM (inactive)
COc1cc2ncnc(Oc3cccc(NC(=O)Nc4cc(C(C)(C)C(F)(F)F)on4)c3)c2cc1OC [CEP-32496] | > 30 µM (inactive) | > 30 µM (inactive) | > 30 µM (inactive) | > 30 µM (inactive) | > 30 µM (inactive) | > 30 µM (inactive)
CCS(=O)(=O)N1CCN(c2ccc(Nc3ncc(C(N)=O)c(NC4CC4)n3)cc2)CC1 [Cerdulatinib Hydrochloride] | > 30 µM (inactive) | 1.21 µM (active) | > 30 µM (inactive) | > 30 µM (inactive) | > 30 µM (inactive) | > 30 µM (inactive)
Cc1nc2cc(-c3nn(C(C)C)c4ncnc(N)c34)ccc2o1 | > 30 µM (inactive) | > 30 µM (inactive) | > 30 µM (inactive) | 0.04 µM (active) | > 30 µM (inactive) | > 30 µM (inactive)
O=C1NC(=O)[C@@H](c2cn3c4c(cccc24)CCC3)[C@@H]1c1c[nH]c2ccccc12 [TIVANTINIB] | > 30 µM (inactive) | > 30 µM (inactive) | > 30 µM (inactive) | > 30 µM (inactive) | > 30 µM (inactive) | > 30 µM (inactive)
CO[C@H]1C[C@@H]2CC[C@@H](C)[C@@](O)(O2)C(=O)C(=O)N2CCCC[C@H]2C(=O)O[C@H]([C@H](C)C[C@@H]2CC[C@@H](OP(C)(C)=O)[C@H](OC)C2)CC(=O)[C@H](C)/C=C(\C)[C@@H](O)[C@@H](OC)C(=O)[C@H](C)C[C@H](C)/C=C/C=C/C=C/1C [RIDAFOROLIMUS] | > 30 µM (inactive) | > 30 µM (inactive) | > 30 µM (inactive) | > 30 µM (inactive) | > 30 µM (inactive) | > 30 µM (inactive)
COCC(=O)NC/C=C/c1ccc2ncnc(Nc3ccc(Oc4ccc(C)nc4)c(C)c3)c2c1 [CP-724714] | > 30 µM (inactive) | > 30 µM (inactive) | > 30 µM (inactive) | > 30 µM (inactive) | > 30 µM (inactive) | > 30 µM (inactive)
Cc1nc(NC(=O)N2CCC[C@H]2C(N)=O)sc1-c1ccnc(C(C)(C)C(F)(F)F)c1 [ALPELISIB] | > 30 µM (inactive) | > 30 µM (inactive) | > 30 µM (inactive) | > 30 µM (inactive) | > 30 µM (inactive) | > 30 µM (inactive)
CNC(=O)c1nn(C)c2c1C(C)(C)Cc1cnc(Nc3ccc(N4CCN(C)CC4)cc3)nc1-2 [MILCICLIB] | > 30 µM (inactive) | 0.143 µM (active) | > 30 µM (inactive) | 0.477 µM (active) | 1.99 µM (active) | > 30 µM (inactive)
C[C@H]1CNCCCN1S(=O)(=O)c1cccc2cncc(F)c12 | > 30 µM (inactive) | 3.7 µM (active) | > 30 µM (inactive) | > 30 µM (inactive) | > 30 µM (inactive) | > 30 µM (inactive)
Cc1cnc(NC(=O)Nc2cc(Br)c(C)cc2OC[C@@H]2CNCCO2)cn1 [RABUSERTIB] | > 30 µM (inactive) | > 30 µM (inactive) | > 30 µM (inactive) | > 30 µM (inactive) | > 30 µM (inactive) | > 30 µM (inactive)
Cc1cccc(-c2nn3c(c2-c2ccnc4ccc(C(N)=O)cc24)CCC3)n1 [GALUNISERTIB] | > 30 µM (inactive) | > 30 µM (inactive) | > 30 µM (inactive) | > 30 µM (inactive) | > 30 µM (inactive) | > 30 µM (inactive)
COc1cc([C@@H]2c3cc4c(cc3[C@H](O)[C@H]3COC(=O)[C@@H]23)OCO4)cc(OC)c1OC [AXL-1717] | > 30 µM (inactive) | > 30 µM (inactive) | > 30 µM (inactive) | > 30 µM (inactive) | > 30 µM (inactive) | > 30 µM (inactive)
Cc1csc(-c2nnc(Nc3ccc(Oc4ncccc4-c4ccnc(N)n4)cc3)c3ccccc23)c1 [AMG-900] | > 30 µM (inactive) | 5.67 µM (active) | > 30 µM (inactive) | > 30 µM (inactive) | > 30 µM (inactive) | > 30 µM (inactive)
Nc1ncnc2c1c(-c1cccc(OCc3ccccc3)c1)cn2[C@H]1C[C@@H](CN2CCC2)C1 [AEW-541] | > 30 µM (inactive) | > 30 µM (inactive) | > 30 µM (inactive) | 1.2 µM (active) | > 30 µM (inactive) | > 30 µM (inactive)
CN1CCN(CCOc2cc(OC3CCOCC3)c3c(Nc4c(Cl)ccc5c4OCO5)ncnc3c2)CC1 [SARACATINIB] | > 30 µM (inactive) | > 30 µM (inactive) | > 30 µM (inactive) | 0.004 µM (active) | > 30 µM (inactive) | > 30 µM (inactive)
COc1ccc(S(=O)(=O)N(C(C)=O)c2ccccc2/C=C/c2cc[n+]([O-])cc2)cc1 [HMN-214] | > 30 µM (inactive) | > 30 µM (inactive) | > 30 µM (inactive) | > 30 µM (inactive) | > 30 µM (inactive) | > 30 µM (inactive)
COc1cc2c(Nc3ccc(Cl)c(Cl)c3F)ncnc2cc1OC[C@@H]1C[C@@H]2CN(C)C[C@@H]2C1 [TESEVATINIB] | > 30 µM (inactive) | > 30 µM (inactive) | > 30 µM (inactive) | > 30 µM (inactive) | > 30 µM (inactive) | > 30 µM (inactive)
